Measurements reported in article PMC10931833, “Simultaneous Purification of Human Interferon Alpha-2b and Serum Albumin Using Bioprivileged Fluorinated Ionic Liquid-Based Aqueous Biphasic Systems” (International Journal of Molecular Sciences, 2024).
Read-outs that look alike come from different tables or passages of the source.

Assays:
FITC-BSA = molecular target: T1, FITC-BSA (Bos taurus, UniProt P02769); assay: MST binding to FITC-BSA; parameters: species or system bovine; conditions: 0.41 μM BSA
T1 construct: purchased Millipore Sigma-Aldrich
Protocol: Herein, a commercial FITC labeling kit (Section 3) was used to fluorescently tag both IFN- α 2b and BSA. Typically, in the labeling process, one amine per protein is labeled, statistically distributing the position of the dye. […] The MST assay was performed as detailed in Section 3. The solutions were prepared with a concentration of IFN- α 2b and BSA fixed at 0.41 μ M in water. For IFN- α 2b a concentration of 2.7 μ M was also prepared to compare it with previous results on MST-binding between FILs and IFN- α 2b fluorescently labeled with a different tag. In each run of MST, a maximum concentration of a ligand is selected and consecutively diluted in sixteen capillaries. […] The experimental conditions of the MST assay only allow the study of the aggregation phenomenon individually for the first CAC.
Microscale thermophoresis (MST) measurements of the dye-labeled protein were used to conduct binding investigations. […] MST tests were conducted in a monolith NT.115 (blue/red) in accordance with the NanoTemper Technologies methodology. Medium MST power and 20% LED power (nano-blue) were set as the instrument’s default settings. For every MST measurement, a PBS buffer was used. The concentration of FITC-BSA was fixed at 0.4 μ M and FITC-IFN- α 2b was tested under two different concentrations (of 0.4 and 2.7 μ M). The ligand was used to create a set of 16 1:1 dilutions, with the starting ligand concentrations ranging from 10 to 400 mM. The typical parameters for MST traces were used for recording: […], 30 s MST power on, and 5 s MST power off. The data from three independently conducted pipetted experiments were examined using NanoTemper Technologies’ MO.Affinity Analysis software, version 2.3.

BSA [1] = molecular target: T2, BSA (Bos taurus, UniProt P02769); assay: CD thermal unfolding (Tm) of BSA; type: physicochemical, bovine
T2 construct: purchased Millipore Sigma-Aldrich
From the text: The thermal stability assessed by far-UV CD is solely determined through the thermal decay of the alpha-helical structure.

BSA [2] = molecular target: T2, BSA; assay: Far-UV CD secondary structure of BSA (CONTIN-LL deconvolution); type: physicochemical, bovine; parameters: Regular Alpha Helix / Distorted Alpha Helix / Regular Beta Sheet / Distorted Beta Sheet / Turns / Unordered: unit not given here; conditions: for Distorted Alpha Helix / Distorted Beta Sheet / Regular Alpha Helix / Regular Beta Sheet / Turns / Unordered: 25 °C
From the text: Circular dichroism (CD) is widely used to study the secondary structures of proteins, peptides and nucleic acids, because it requires a low concentration sample, is a nondestructive method, allows studying a wide range of variables (temperature, pH, etc.), and provides information on the effect of added ligands on protein folding and interactions. Far-UV (190–260 nm) CD spectroscopy was used to assess the IFN- α 2b and BSA secondary structure since the spectra are characteristic of different structural elements.
Circular dichroism (CD) spectra were collected in a 10 mm quartz cuvette and a Chirascan spectropolarimeter (Applied Photophysics, UK) at room temperature. All CD spectra were recorded in the far-UV range of 190 to 260 nm at scan rates of 50 nm/min, with 4 accumulations, and a response time of 3 s; CD spectra were collected. For each CD experiment, two distinct duplicates were acquired and combined. BSA was fixed at 1 mg/mL, solvent concentrations ranging from 0.1 to 200 mM were used, and the spectra were translated to MRE after being expressed in terms of molar ellipticity. Spectral deconvolution was carried out with DichroWeb using the CONTIN-LL deconvolution algorithm with the SMP180 reference set.

BSA [3] = molecular target: T2, BSA; assay: DSC thermal unfolding of BSA in water and aqueous solutions of ABS phase-forming components; type: physicochemical, bovine
Protocol: Differential scanning calorimetry (DSC) measurements were performed with Nano DSC equipment, as detailed in Section 3, and used to determine the melting temperature (T m ) and enthalpy ( Δ H) of protein unfolding. DSC analyzes changes in the structure and stability of proteins as thermal transitions at the nanoscale. Using DSC to measure heat capacity as a function of the temperature of a well-studied protein such as BSA provides keen insights into folding and unfolding processes, as well as factors affecting stability. Due to the volume and concentration requirements of the DSC technique, and the constraints in available quantities of IFN- α 2b the DSC experiments on the ABS phase-forming components’ effect on the structural properties of proteins were attained only for BSA.
The T m of BSA, which corresponds to the thermal unfolding transition midpoint, was measured in the absence and presence of the ABS phase-forming components at increasing concentrations (see Figure 1 and Table 2).

[4] = 1.0 mg/ml BSA, 200 mM component aqueous solution
[5] = 1.0 mg/mL BSA, 0.1 mM component
[6] = 1.0 mg/mL BSA, 120 mM component
[7] = 1.0 mg/mL BSA, 200 mM component
[8] = 1.2-1.6 mg/mL BSA in [N1112(OH)][H2PO4]-rich phase of BP#8

T1 sequence (P02769 25-607): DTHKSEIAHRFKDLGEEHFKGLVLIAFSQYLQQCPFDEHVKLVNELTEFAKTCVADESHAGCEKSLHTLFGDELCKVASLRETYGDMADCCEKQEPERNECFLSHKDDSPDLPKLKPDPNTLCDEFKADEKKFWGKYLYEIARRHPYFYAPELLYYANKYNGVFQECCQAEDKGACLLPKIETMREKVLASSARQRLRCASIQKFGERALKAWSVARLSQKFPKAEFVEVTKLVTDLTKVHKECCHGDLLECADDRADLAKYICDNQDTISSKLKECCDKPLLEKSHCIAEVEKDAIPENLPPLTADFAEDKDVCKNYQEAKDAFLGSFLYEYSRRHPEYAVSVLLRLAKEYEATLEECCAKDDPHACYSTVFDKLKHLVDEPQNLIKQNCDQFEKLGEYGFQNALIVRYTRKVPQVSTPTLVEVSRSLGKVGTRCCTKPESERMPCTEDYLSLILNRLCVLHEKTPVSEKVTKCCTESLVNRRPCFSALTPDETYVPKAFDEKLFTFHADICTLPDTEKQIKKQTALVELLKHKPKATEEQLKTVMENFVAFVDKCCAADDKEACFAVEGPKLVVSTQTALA
T2 sequence (P02769 25-607): as above

O=S(=O)(O)C(F)(F)C(F)(F)C(F)(F)C(F)(F)F [[N1112(OH)][C4F9SO3], (2-hydroxyethyl)trimethylammonium perfluorobutane sulfonate]
Kd (FITC-BSA; max. conc. first capillary in 1st CAC range, read-out: Kd): 860 ± 190 µM
Kd (FITC-BSA; max. conc. first capillary in 2nd CAC range, read-out: Kd): 1490 ± 300 µM

C[N+](C)(C)CCO.C[N+](C)(C)CCO.O=P([O-])(O)O.O=P([O-])(O)O [[N1112(OH)][H2PO4], Choline ((2-hydroxyethyl)trimethylammonium) dihydrogen phosphate]
Tm, Ellipticity 192 nm (BSA [1]; [4]): 65.691 °C
Tm, Ellipticity 208 nm (BSA [1]; [4]): 76.945 °C
Tm, Ellipticity 222 nm (BSA [1]; [4]): 66.702 °C
Distorted Alpha Helix (BSA [2]; [5]): 0.204
Distorted Beta Sheet (BSA [2]; [5]): 0.031
Regular Alpha Helix (BSA [2]; [5]): 0.397
Regular Beta Sheet (BSA [2]; [5]): 0.000
Turns (BSA [2]; [5]): 0.147
Unordered (BSA [2]; [5]): 0.221
Distorted Alpha Helix (BSA [2]; 1.0 mg/mL BSA, 1 mM component): 0.210
Distorted Beta Sheet (BSA [2]; 1.0 mg/mL BSA, 1 mM component): 0.023
Regular Alpha Helix (BSA [2]; 1.0 mg/mL BSA, 1 mM component): 0.393
Regular Beta Sheet (BSA [2]; 1.0 mg/mL BSA, 1 mM component): 0.000
Turns (BSA [2]; 1.0 mg/mL BSA, 1 mM component): 0.132
Unordered (BSA [2]; 1.0 mg/mL BSA, 1 mM component): 0.242
Distorted Alpha Helix (BSA [2]; 1.0 mg/mL BSA, 5 mM component): 0.203
Distorted Beta Sheet (BSA [2]; 1.0 mg/mL BSA, 5 mM component): 0.023
Regular Alpha Helix (BSA [2]; 1.0 mg/mL BSA, 5 mM component): 0.377
Regular Beta Sheet (BSA [2]; 1.0 mg/mL BSA, 5 mM component): 0.004
Turns (BSA [2]; 1.0 mg/mL BSA, 5 mM component): 0.128
Unordered (BSA [2]; 1.0 mg/mL BSA, 5 mM component): 0.265
Distorted Alpha Helix (BSA [2]; 1.0 mg/mL BSA, 25 mM component): 0.195
Distorted Beta Sheet (BSA [2]; 1.0 mg/mL BSA, 25 mM component): 0.029
Regular Alpha Helix (BSA [2]; 1.0 mg/mL BSA, 25 mM component): 0.36
Regular Beta Sheet (BSA [2]; 1.0 mg/mL BSA, 25 mM component): 0.015
Turns (BSA [2]; 1.0 mg/mL BSA, 25 mM component): 0.136
Unordered (BSA [2]; 1.0 mg/mL BSA, 25 mM component): 0.266
Distorted Alpha Helix (BSA [2]; 1.0 mg/mL BSA, 55 mM component): 0.150
Distorted Beta Sheet (BSA [2]; 1.0 mg/mL BSA, 55 mM component): 0.055
Regular Alpha Helix (BSA [2]; 1.0 mg/mL BSA, 55 mM component): 0.242
Regular Beta Sheet (BSA [2]; 1.0 mg/mL BSA, 55 mM component): 0.080
Turns (BSA [2]; 1.0 mg/mL BSA, 55 mM component): 0.153
Unordered (BSA [2]; 1.0 mg/mL BSA, 55 mM component): 0.320
Distorted Alpha Helix (BSA [2]; 1.0 mg/mL BSA, 90 mM component): 0.171
Distorted Beta Sheet (BSA [2]; 1.0 mg/mL BSA, 90 mM component): 0.044
Regular Alpha Helix (BSA [2]; 1.0 mg/mL BSA, 90 mM component): 0.294
Regular Beta Sheet (BSA [2]; 1.0 mg/mL BSA, 90 mM component): 0.057
Turns (BSA [2]; 1.0 mg/mL BSA, 90 mM component): 0.145
Unordered (BSA [2]; 1.0 mg/mL BSA, 90 mM component): 0.289
Distorted Alpha Helix (BSA [2]; [6]): 0.207
Distorted Beta Sheet (BSA [2]; [6]): 0.029
Regular Alpha Helix (BSA [2]; [6]): 0.396
Regular Beta Sheet (BSA [2]; [6]): 0.018
Turns (BSA [2]; [6]): 0.141
Unordered (BSA [2]; [6]): 0.208
Distorted Alpha Helix (BSA [2]; [7]): 0.202
Distorted Beta Sheet (BSA [2]; [7]): 0.032
Regular Alpha Helix (BSA [2]; [7]): 0.386
Regular Beta Sheet (BSA [2]; [7]): 0.021
Turns (BSA [2]; [7]): 0.146
Unordered (BSA [2]; [7]): 0.212
Tm (BSA [3]; [5]): 75.36 °C
ΔG (BSA [3]; [5]): 15.2 kcal/mol
ΔHcal (BSA [3]; [5]): 105.9 kcal/mol
ΔHcal/ΔHvH (BSA [3]; [5]): 0.949
ΔHvH (BSA [3]; [5]): 111.6 kcal/mol
ΔS (BSA [3]; [5]): 1.272 KJ/(mol.K)
Tm (BSA [3]; 1.0 mg/mL BSA, 1 mM component): 81.59 °C
ΔG (BSA [3]; 1.0 mg/mL BSA, 1 mM component): 18.02 kcal/mol
ΔHcal (BSA [3]; 1.0 mg/mL BSA, 1 mM component): 112.4 kcal/mol
ΔHcal/ΔHvH (BSA [3]; 1.0 mg/mL BSA, 1 mM component): 0.613
ΔHvH (BSA [3]; 1.0 mg/mL BSA, 1 mM component): 183.3 kcal/mol
ΔS (BSA [3]; 1.0 mg/mL BSA, 1 mM component): 1.325 KJ/(mol.K)
Tm (BSA [3]; 1.0 mg/mL BSA, 5 mM component): 80.80 °C
ΔG (BSA [3]; 1.0 mg/mL BSA, 5 mM component): 25.72 kcal/mol
ΔHcal (BSA [3]; 1.0 mg/mL BSA, 5 mM component): 162.2 kcal/mol
ΔHcal/ΔHvH (BSA [3]; 1.0 mg/mL BSA, 5 mM component): 1.081
ΔHvH (BSA [3]; 1.0 mg/mL BSA, 5 mM component): 150 kcal/mol
ΔS (BSA [3]; 1.0 mg/mL BSA, 5 mM component): 1.915 KJ/(mol.K)
Tm (BSA [3]; 1.0 mg/mL BSA, 10 mM component): 73.90 °C
ΔG (BSA [3]; 1.0 mg/mL BSA, 10 mM component): 17.42 kcal/mol
ΔHcal (BSA [3]; 1.0 mg/mL BSA, 10 mM component): 122.8 kcal/mol
ΔHcal/ΔHvH (BSA [3]; 1.0 mg/mL BSA, 10 mM component): 0.998
ΔHvH (BSA [3]; 1.0 mg/mL BSA, 10 mM component): 123 kcal/mol
ΔS (BSA [3]; 1.0 mg/mL BSA, 10 mM component): 1.479 KJ/(mol.K)
effect on BSA Tm (DSC) (BSA [3]; tested concentration range vs water): maintained
Kd (FITC-BSA; max. conc. first capillary 12.5 mM (monomer)): no binding detected
Kd (FITC-BSA; max. conc. first capillary 400 mM (monomer)): no binding detected

Bovine serum albumin [BSA]
Tm, Ellipticity 192 nm (BSA [1]; 1.0 mg/mL BSA in water): 74.028 °C
Tm, Ellipticity 208 nm (BSA [1]; 1.0 mg/mL BSA in water): 74.616 °C
Tm, Ellipticity 222 nm (BSA [1]; 1.0 mg/mL BSA in water): 76.277 °C
Tm, Ellipticity 208 nm (BSA [1]; [8]): 76.122 °C
Tm, Ellipticity 222 nm (BSA [1]; [8]): 80.396 °C
Distorted Alpha Helix (BSA [2]; 1.0 mg/mL BSA in water): 0.206
Distorted Beta Sheet (BSA [2]; 1.0 mg/mL BSA in water): 0.025
Regular Alpha Helix (BSA [2]; 1.0 mg/mL BSA in water): 0.400
Regular Beta Sheet (BSA [2]; 1.0 mg/mL BSA in water): 0.000
Turns (BSA [2]; 1.0 mg/mL BSA in water): 0.136
Unordered (BSA [2]; 1.0 mg/mL BSA in water): 0.233
predicted α-helical content (BSA [2]; BSA in water, CD deconvolution): 0.61
ΔG (BSA [3]; 1.0 mg/mL BSA in water): 16.87 kcal/mol
ΔHcal (BSA [3]; 1.0 mg/mL BSA in water): 113.9 kcal/mol
ΔHvH (BSA [3]; 1.0 mg/mL BSA in water): 112.4 kcal/mol
ΔS (BSA [3]; 1.0 mg/mL BSA in water): 1.361 KJ/(mol.K)
